This is an account of results in publication PMC4259467, “Molecular Cloning, Characterization and Positively Selected Sites of the Glutathione S-Transferase Family from Locusta migratoria” (PLoS ONE, 2014).

Structures are written as SMILES.

What all share (assay): spectrophotometric GST assay, steady state
Assay type in all cases: biochemical
What all share (conditions): co-substrate GSH; pH and temperature not given; read-out: K m ^CDNB

The target in assay [1] is T1, LmGSTD3 (Locusta migratoria, UniProt V9Q4H6).
T1 construct: gene GSTd3; full-length ORF in pET28a, E. coli BL21(DE3), His-tag Ni-NTA purified
T1 sequence (V9Q4H6 1-222): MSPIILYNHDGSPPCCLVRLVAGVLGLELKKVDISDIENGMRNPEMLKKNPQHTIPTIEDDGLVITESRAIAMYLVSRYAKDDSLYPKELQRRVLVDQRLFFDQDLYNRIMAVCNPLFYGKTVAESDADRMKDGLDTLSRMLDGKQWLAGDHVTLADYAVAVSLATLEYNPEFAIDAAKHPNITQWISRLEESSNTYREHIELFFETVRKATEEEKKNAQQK
An excerpt:
spectrophotometric GST assay, steady state on LmGSTD3

In assay [2] the target is T2, LmGSTS7 (Locusta migratoria, UniProt F4YUJ6).
T2 construct: full-length ORF in pET28a, E. coli BL21(DE3), His-tag Ni-NTA purified
T2 sequence (F4YUJ6 1-204): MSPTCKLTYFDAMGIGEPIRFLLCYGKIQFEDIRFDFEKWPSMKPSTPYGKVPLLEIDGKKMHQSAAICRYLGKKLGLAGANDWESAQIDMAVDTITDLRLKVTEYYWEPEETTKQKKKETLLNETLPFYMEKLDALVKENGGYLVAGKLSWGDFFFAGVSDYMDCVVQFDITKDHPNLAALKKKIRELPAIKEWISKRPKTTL
The text has this: spectrophotometric GST assay, steady state on LmGSTS7

The target of assay [3] is T3, LmGSTE4 (Locusta migratoria, UniProt V9Q318).
T3 construct: gene GSTe4; full-length ORF in pET28a, E. coli BL21(DE3), His-tag Ni-NTA purified
T3 sequence (V9Q318 1-221): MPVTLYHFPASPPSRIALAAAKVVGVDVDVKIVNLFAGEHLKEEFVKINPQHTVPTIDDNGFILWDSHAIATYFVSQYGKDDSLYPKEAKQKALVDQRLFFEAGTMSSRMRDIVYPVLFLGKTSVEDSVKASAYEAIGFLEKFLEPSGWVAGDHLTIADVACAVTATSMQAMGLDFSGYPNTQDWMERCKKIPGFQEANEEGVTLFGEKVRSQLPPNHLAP
The text has this: spectrophotometric GST assay, steady state on LmGSTE4

The target of assay [4] is T4, LmGSTE5 (Locusta migratoria, UniProt V9Q3X9).
T4 construct: gene GSTe5; full-length ORF in pET28a, E. coli BL21(DE3), His-tag Ni-NTA purified
T4 sequence (V9Q3X9 1-221): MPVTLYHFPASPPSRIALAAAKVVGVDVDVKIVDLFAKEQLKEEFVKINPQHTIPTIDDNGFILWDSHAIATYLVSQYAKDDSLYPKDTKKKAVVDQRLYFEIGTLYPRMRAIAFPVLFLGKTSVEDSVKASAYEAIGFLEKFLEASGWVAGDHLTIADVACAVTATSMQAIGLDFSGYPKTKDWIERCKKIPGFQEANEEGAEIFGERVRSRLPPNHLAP
The text has this: spectrophotometric GST assay, steady state on LmGSTE5

For assay [5], the target named is T5, LmGSTO2 (Locusta migratoria, UniProt I3QKS2).
T5 construct: gene GSTo2; full-length ORF in pET28a, E. coli BL21(DE3), His-tag Ni-NTA purified
T5 sequence (I3QKS2 1-245): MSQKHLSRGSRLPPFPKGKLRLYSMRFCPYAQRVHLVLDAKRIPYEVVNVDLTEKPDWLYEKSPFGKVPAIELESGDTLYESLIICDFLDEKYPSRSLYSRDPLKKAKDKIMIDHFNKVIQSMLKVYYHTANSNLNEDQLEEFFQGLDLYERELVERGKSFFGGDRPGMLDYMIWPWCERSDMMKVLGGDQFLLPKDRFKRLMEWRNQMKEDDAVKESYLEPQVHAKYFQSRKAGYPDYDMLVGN
The text has this:
spectrophotometric GST assay, steady state on LmGSTO2

Assay [6] has as its target T6, LmGSTT2 (Locusta migratoria, UniProt V9Q331).
T6 construct: gene GSTt2; full-length ORF in pET28a, E. coli BL21(DE3), His-tag Ni-NTA purified
T6 sequence (V9Q331 1-231): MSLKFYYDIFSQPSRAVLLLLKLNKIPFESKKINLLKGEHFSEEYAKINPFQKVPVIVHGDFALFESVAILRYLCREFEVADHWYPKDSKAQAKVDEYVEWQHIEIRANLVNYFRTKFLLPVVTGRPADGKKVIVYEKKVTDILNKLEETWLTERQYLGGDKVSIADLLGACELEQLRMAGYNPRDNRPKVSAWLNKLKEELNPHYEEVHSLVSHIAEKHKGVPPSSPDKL
An excerpt:
spectrophotometric GST assay, steady state on LmGSTT2

Assay [7] deals with T7, LmGSTD1 (Locusta migratoria, UniProt E7BTM5).
T7 construct: full-length ORF in pET28a, E. coli BL21(DE3), His-tag Ni-NTA purified
T7 sequence (E7BTM5 1-218): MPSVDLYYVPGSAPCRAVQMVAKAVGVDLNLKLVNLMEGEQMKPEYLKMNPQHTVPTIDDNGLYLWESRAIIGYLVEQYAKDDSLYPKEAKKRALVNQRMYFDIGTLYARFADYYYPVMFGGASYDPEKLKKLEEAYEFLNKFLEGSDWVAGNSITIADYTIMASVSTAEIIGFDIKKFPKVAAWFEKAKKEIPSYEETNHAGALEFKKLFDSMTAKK
An excerpt: spectrophotometric GST assay, steady state on LmGSTD1

Assay [8] addresses T8, LmGSTS8 (Locusta migratoria, UniProt V9Q487).
T8 construct: gene GSTs8; full-length ORF in pET28a, E. coli BL21(DE3), His-tag Ni-NTA purified
An excerpt: spectrophotometric GST assay, steady state on LmGSTS8

For assay [9], the target named is T9, LmGSTS10 (Locusta migratoria, UniProt V9Q3X5).
T9 construct: gene GSTs10; full-length ORF in pET28a, E. coli BL21(DE3), His-tag Ni-NTA purified
T9 sequence (V9Q3X5 1-204): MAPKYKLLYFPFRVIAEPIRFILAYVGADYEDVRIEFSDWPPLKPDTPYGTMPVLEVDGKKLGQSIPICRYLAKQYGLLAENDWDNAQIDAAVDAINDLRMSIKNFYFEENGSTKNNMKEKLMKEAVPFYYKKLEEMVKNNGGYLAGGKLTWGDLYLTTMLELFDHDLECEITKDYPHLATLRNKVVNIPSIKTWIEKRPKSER
An excerpt:
spectrophotometric GST assay, steady state on LmGSTS10

T8 sequence (V9Q487 1-204): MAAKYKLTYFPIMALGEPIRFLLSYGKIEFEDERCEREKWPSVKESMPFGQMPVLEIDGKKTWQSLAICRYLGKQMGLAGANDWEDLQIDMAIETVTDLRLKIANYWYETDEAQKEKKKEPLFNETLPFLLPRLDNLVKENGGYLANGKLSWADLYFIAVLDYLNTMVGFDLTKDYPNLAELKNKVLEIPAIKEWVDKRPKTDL

Turning to `O=[N+]([O-])c1ccc(Cl)c([N+](=O)[O-])c1` [CDNB], the Km was 102 ± 10 µM in assay [1]; 46 ± 1 µM in assay [2]; 102 ± 8 µM in assay [3]; 26 ± 2 µM in assay [4]; 841 ± 138 µM in assay [5]; 393 ± 49 µM in assay [6]. Further, the results for the Km in [7], in [8] and in assay [9] were 139 ± 8 µM, 100 ± 6 µM and 311 ± 18 µM, respectively.
